Experimental data as given in patent US9193719B2, “1,2,4-triazol-5-ones and analogs exhibiting anti-cancer and anti-proliferative activities” (Deciphera Pharmaceuticals, LLC, priority 2013, dated 2015).

What was measured:
[1] = target: T1, unphosphorylated c-KIT kinase (uKIT, Seq. ID no. 2) (Homo sapiens, UniProt P10721); assay: uKit kinase enzymatic assay (pyruvate kinase/lactate dehydrogenase coupled); type: biochemical; details: ATP 2000 μM, rate 3 to 4 h
T1 construct: uKit with N-terminal GST fusion used for screening
T1 sequence (P10721 with tags, fused parts or gaps): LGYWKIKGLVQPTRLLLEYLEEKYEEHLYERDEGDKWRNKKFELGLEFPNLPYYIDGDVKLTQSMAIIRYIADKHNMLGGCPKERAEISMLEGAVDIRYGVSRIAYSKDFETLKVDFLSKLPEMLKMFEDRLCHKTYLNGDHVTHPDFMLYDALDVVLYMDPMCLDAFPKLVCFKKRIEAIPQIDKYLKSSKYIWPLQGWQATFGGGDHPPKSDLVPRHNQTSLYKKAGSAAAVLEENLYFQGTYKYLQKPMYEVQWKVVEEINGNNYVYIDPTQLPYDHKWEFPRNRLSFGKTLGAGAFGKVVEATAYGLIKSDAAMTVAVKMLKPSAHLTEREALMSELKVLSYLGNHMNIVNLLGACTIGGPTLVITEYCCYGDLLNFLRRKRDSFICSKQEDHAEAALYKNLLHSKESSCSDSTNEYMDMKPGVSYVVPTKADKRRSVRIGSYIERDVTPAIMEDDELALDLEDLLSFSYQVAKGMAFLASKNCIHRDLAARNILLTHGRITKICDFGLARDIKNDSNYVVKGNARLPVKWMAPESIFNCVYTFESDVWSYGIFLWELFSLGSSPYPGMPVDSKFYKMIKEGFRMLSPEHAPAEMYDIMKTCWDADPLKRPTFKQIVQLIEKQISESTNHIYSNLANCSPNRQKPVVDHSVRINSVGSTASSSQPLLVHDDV
Protocol: uKit Kinase (Seq. ID No. 2) Assay
Activity of unphosphorylated c-KIT kinase (uKIT, Seq. ID no. 2) was determined by following the production of ADP from the KIT kinase reaction with ATP and poly E4Y as substrates through coupling with the pyruvate kinase/lactate dehydrogenase system (e.g., Schindler et al. Science (2000) 289: 1938-1942). In this assay, the oxidation of NADH (thus the decrease at A340 nm) was continuously monitored spectrophometrically. The reaction mixture (100 μl) contained unphosphorylated KIT (12 nM), polyE4Y (1 mg/mL), MgCl2 (10 mM), pyruvate kinase (4 units), lactate dehydrogenase (0.7 units), phosphoenol pyruvate (1 mM), and NADH (0.28 mM) and ATP (2000 μM) in 90 mM Tris buffer containing 0.2% octyl-glucoside and 1% DMSO, pH 7.5. The inhibition reaction was started by mixing serial diluted test compound with the above reaction mixture. The absorption at 340 nm was monitored continuously for 4 hours at 30° C. on Synergy 2 plate reader (BioTech). Reaction rates around 3 to 4 h time frame were used to calculate % inhibitions, from which IC50 values were generated.

[2] = tested on: phospho-FMS in THP-1 cells; assay: Phospho-FMS ELISA assay in THP-1 cells; type: cell-based; details: Homo sapiens, 4 h compound, M-CSF stimulation 5 min, read-out: pFMS inhibition in THP-1 cells
Protocol: THP-1 cells (catalog #TIB-202) were obtained from the ATCC. Briefly, cells were grown in RPMI 1640 supplemented with 10% characterized fetal bovine serum, 1% sodium pyruvate, 1% Penicillin-Streptomycin-Glutamine (PSG) and 55 uM 2-mercaptoethanol (Invitrogen, Carlsbad, Calif.) at 37 degrees Celsius, 5% CO2, 95% humidity. Cells were allowed to expand until reaching 70-95% confluency at which point they were subcultured or harvested for assay use.
A serial dilution of test compound was diluted 1:100 in assay medium (RPMI 1640 supplemented with 10% characterized fetal bovine serum) in a 96 well black clear bottom plate (Corning, Corning, N.Y.). In a separate 96 well black clear bottom plate, one hundred and fifty thousand THP-1 cells were added per well in 100 μL in assay medium. Fifty microliters of diluted compound was then added to the cells. Plates were incubated for 4 hours at 37 degrees Celsius, 5% CO2, 95% humidity. At the end of the incubation period, cells were stimulated with 50 μL of a 100 nM solution of recombinant human M-CSF (catalog #216-MC, R & D Systems, Minneapolis, Minn.) in assay medium and the plate was incubated for 5 minutes at 37 degrees Celsius, 5% CO2, 95% humidity. Lysates were prepared and used to perform the phospho-FMS ELISA as described by the manufacturer (catalog #DYC3268, R & D Systems, Minneapolis, Minn.). GraphPad Prism was used to calculate IC50 values obtained from data generated from the ELISA assay.

[3] = target: T2, unphosphorylated PDGFRβ kinase (uPDGFRβ, Seq. ID No. 3) (Homo sapiens, UniProt P09619); assay: uPDGFRβ kinase enzymatic assay (pyruvate kinase/lactate dehydrogenase coupled); type: biochemical; details: ATP 500 μM, rate 1.5 to 2.5 h
T2 construct: purchased DeCode
T2 sequence (P09619 557-1106): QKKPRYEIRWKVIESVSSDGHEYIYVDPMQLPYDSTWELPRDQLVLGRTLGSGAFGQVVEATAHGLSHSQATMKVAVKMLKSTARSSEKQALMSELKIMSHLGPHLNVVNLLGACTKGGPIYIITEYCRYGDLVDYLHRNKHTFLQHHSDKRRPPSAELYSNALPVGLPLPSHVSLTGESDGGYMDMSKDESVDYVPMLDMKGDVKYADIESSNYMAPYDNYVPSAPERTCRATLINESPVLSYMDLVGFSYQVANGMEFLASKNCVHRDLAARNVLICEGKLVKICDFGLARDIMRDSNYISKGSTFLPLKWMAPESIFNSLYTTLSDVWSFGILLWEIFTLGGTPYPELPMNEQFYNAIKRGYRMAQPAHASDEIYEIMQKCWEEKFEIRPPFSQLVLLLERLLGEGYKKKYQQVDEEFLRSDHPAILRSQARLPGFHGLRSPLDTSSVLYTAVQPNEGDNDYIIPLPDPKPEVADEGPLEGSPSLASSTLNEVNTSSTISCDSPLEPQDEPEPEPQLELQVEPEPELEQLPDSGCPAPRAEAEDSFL
Protocol: Unphosphorylated PDGFRβ (uPDGFRβ) Kinase (Seq. ID No. 3) Assay
Activity of unphosphorylated PDGFRβ kinase (uPDGFRβ, Seq. ID No. 3) was determined by following the production of ADP from the kinase reaction with ATP and poly E4Y as substrates through coupling with the pyruvate kinase/lactate dehydrogenase system (e.g., Schindler et al. Science (2000) 289: 1938-1942). In this assay, the oxidation of NADH (thus the decrease at A340 nm) was continuously monitored spectrophometrically. The reaction mixture (100 μL) contained PDGFRβ (DeCode, 15.7 nM), polyE4Y (2.5 mg/mL), MgCl2 (10 mM), pyruvate kinase (4 units), lactate dehydrogenase (0.7 units), phosphoenol pyruvate (1 mM) and NADH (0.28 mM) and ATP (500 μM) in a 90 mM Tris buffer containing 0.2% octyl-glucoside and 1% DMSO, at pH 7.5. The inhibition reaction was started by mixing serial diluted test compound with the above reaction mixture. The absorption at 340 nm was monitored continuously for 4 h at 30° C. on a Polarstar Optima or Synergy 2 plate reader. The reaction rate was calculated using the 1.5 to 2.5 h time frame. Percent inhibition was obtained by comparison of reaction rate with that of a control (i.e. with no test compound). IC50 values were calculated from a series of percent inhibition values determined at a range of inhibitor concentrations using software routines as implemented in the GraphPad Prism software package.

[4] = tested on: M-NFS-60 cells; assay: M-NFS-60 cell proliferation assay (resazurin); type: cell-based; details: 67 h incubation
Protocol: M-NFS-60 cells (catalog #CRL-1838) were obtained from the American Type Culture Collection (ATCC, Manassas, Va.). Briefly, cells were grown in suspension in RPMI 1640 medium supplemented with 10% characterized fetal bovine serum (Invitrogen, Carlsbad, Calif.), 0.05 mM 2-mercaptoethanol, and 20 ng/mL mouse recombinant macrophage colony stimulating factor (M-CSF) at 37° C., 5% CO2, and 95% humidity. Cells were allowed to expand until reaching saturation at which point they were subcultured or harvested for assay use.
M-NFS-60 Cell Proliferation Assay
A serial dilution of test compound was dispensed into a 384-well black clear bottom plate (Corning, Corning, N.Y.). Two thousand five hundred cells were added per well in 50 μL complete growth medium. Plates were incubated for 67 h at 37° C., 5% CO2, and 95% humidity. At the end of the incubation period 10 μL of a 440 μM solution of resazurin (Sigma, St. Louis, Mo.) in PBS was added to each well and incubated for an additional 5 h at 37° C., 5% CO2, and 95% humidity. Plates were read on a Synergy2 reader (Biotek, Winooski, Vt.) using an excitation of 540 nm and an emission of 600 nm. IC50 values were calculated from a series of percent inhibition values determined at a range of inhibitor concentrations using software routines as implemented in the GraphPad Prism software package.

Cc1nc(-n2nc(Cc3ccc(F)cc3)[nH]c2=O)ccc1Oc1ccnc(-c2cnn(C)c2)c1 [Example 1, 3-(4-fluorobenzyl)-1-(6-methyl-5-((2-(1-methyl-1H-pyrazol-4-yl)pyridin-4-yl)oxy)pyridin-2-yl)-1H-1,2,4-triazol-5(4H)-one]
IC50 [1]: 0.1 to 1 µM
IC50 [2]: 0.01 to 0.1 µM
IC50 [3]: 0.1 to 1 µM
IC50 [4]: 0.01 to 0.1 µM

Cc1nc(-n2nc(Cc3ccccc3)[nH]c2=O)ccc1Oc1ccnc(-c2cnn(C)c2)c1 [Example 2, 3-benzyl-1-(6-methyl-5-((2-(1-methyl-1H-pyrazol-4-yl)pyridin-4-yl)oxy)pyridin-2-yl)-1H-1,2,4-triazol-5(4H)-one]
IC50 [1]: 0.1 to 1 µM
IC50 [2]: ≤ 0.01 µM
IC50 [3]: 0.1 to 1 µM
IC50 [4]: 0.01 to 0.1 µM

Cn1cc(-c2cc(Oc3ccc(-n4nc(Cc5ccc(F)cc5)[nH]c4=O)nc3)ccn2)cn1 [Example 3, 3-(4-fluorobenzyl)-1-(5-((2-(1-methyl-1H-pyrazol-4-yl)pyridin-4-yl)oxy)pyridin-2-yl)-1H-1,2,4-triazol-5(4H)-one]
IC50 [1]: 0.01 to 0.1 µM
IC50 [2]: 0.01 to 0.1 µM
IC50 [3]: 0.01 to 0.1 µM
IC50 [4]: 0.01 to 0.1 µM

Cn1cc(-c2cc(Oc3ccc(-n4nc(C(C)(C)C)[nH]c4=O)nc3)ccn2)cn1 [Example 4, 3-(tert-butyl)-1-(5-((2-(1-methyl-1H-pyrazol-4-yl)pyridin-4-yl)oxy)pyridin-2-yl)-1H-1,2,4-triazol-5(4H)-one]
IC50 [1]: 0.01 to 0.1 µM
IC50 [2]: 0.01 to 0.1 µM
IC50 [3]: > 1 µM
IC50 [4]: 0.01 to 0.1 µM

Cc1nc(-n2nc(C(C)C)[nH]c2=O)ccc1Oc1ccnc(-c2cnn(C)c2)c1 [Example 5, 3-isopropyl-1-(6-methyl-5-((2-(1-methyl-1H-pyrazol-4-yl)pyridin-4-yl)oxy)pyridin-2-yl)-1H-1,2,4-triazol-5(4H)-one]
IC50 [1]: 0.1 to 1 µM
IC50 [2]: 0.01 to 0.1 µM
IC50 [3]: > 1 µM
IC50 [4]: 0.01 to 0.1 µM

Cc1nc(-n2nc(C3CCCCC3)[nH]c2=O)ccc1Oc1ccnc(-c2cnn(C)c2)c1 [Example 6, 3-cyclohexyl-1-(6-methyl-5-((2-(1-methyl-1H-pyrazol-4-yl)pyridin-4-yl)oxy)pyridin-2-yl)-1H-1,2,4-triazol-5(4H)-one]
IC50 [1]: 0.01 to 0.1 µM
IC50 [2]: ≤ 0.01 µM
IC50 [3]: 0.1 to 1 µM
IC50 [4]: ≤ 0.01 µM

Cc1nc(-n2nc(C(C)(C)C)[nH]c2=O)ccc1Oc1ccnc(-c2cnn(C)c2)c1 [Example 7, 3-(tert-butyl)-1-(6-methyl-5-((2-(1-methyl-1H-pyrazol-4-yl)pyridin-4-yl)oxy)pyridin-2-yl)-1H-1,2,4-triazol-5(4H)-one]
IC50 [1]: 0.1 to 1 µM
IC50 [2]: 0.01 to 0.1 µM
IC50 [3]: > 1 µM
IC50 [4]: 0.01 to 0.1 µM

Cc1cc(-c2cc(Oc3ccc(-n4nc(C(C)(C)C)[nH]c4=O)nc3C)ccn2)ccn1 [Example 9, 3-(tert-butyl)-1-(6-methyl-5-((2′-methyl-[2,4′-bipyridin]-4-yl)oxy)pyridin-2-yl)-1H-1,2,4-triazol-5(4H)-one]
IC50 [1]: 0.1 to 1 µM
IC50 [2]: 0.01 to 0.1 µM
IC50 [3]: > 1 µM
IC50 [4]: 0.01 to 0.1 µM

Cc1ccc(-c2cc(Oc3ccc(-n4nc(C(C)(C)C)[nH]c4=O)nc3C)ccn2)cn1 [Example 10, 3-(tert-butyl)-1-(6-methyl-5-((6′-methyl-[2,3′-bipyridin]-4-yl)oxy)pyridin-2-yl)-1H-1,2,4-triazol-5(4H)-one]
IC50 [1]: > 1 µM
IC50 [2]: 0.01 to 0.1 µM
IC50 [3]: > 1 µM
IC50 [4]: 0.01 to 0.1 µM

Cc1nc(-n2nc(C(C)(C)C)n(C)c2=O)ccc1Oc1ccnc(-c2cnn(C)c2)c1 [Example 13, 3-(tert-butyl)-4-methyl-1-(6-methyl-5-((2-(1-methyl-1H-pyrazol-4-yl)pyridin-4-yl)oxy)pyridin-2-yl)-1H-1,2,4-triazol-5(4H)-one]
IC50 [1]: 0.1 to 1 µM
IC50 [2]: 0.1 to 1 µM
IC50 [3]: > 1 µM
IC50 [4]: 0.1 to 1 µM

Cc1nc(-n2nc(C(C)(C)C)[nH]c2=O)ccc1Oc1ccnc(-c2ccc(C3CCN(C)CC3)cc2)c1 [Example 14, 3-(tert-butyl)-1-(6-methyl-5-((2-(4-(1-methylpiperidin-4-yl)phenyl)pyridin-4-yl)oxy)pyridin-2-yl)-1H-1,2,4-triazol-5(4H)-one]
IC50 [1]: 0.01 to 0.1 µM
IC50 [2]: 0.01 to 0.1 µM
IC50 [3]: > 1 µM
IC50 [4]: 0.01 to 0.1 µM

COC(C)(C)c1nn(-c2ccc(Oc3ccnc(-c4cnn(C)c4)c3)c(C)n2)c(=O)[nH]1 [Example 16, 3-(2-methoxypropan-2-yl)-1-(6-methyl-5-((2-(1-methyl-1H-pyrazol-4-yl)pyridin-4-yl)oxy)pyridin-2-yl)-1H-1,2,4-triazol-5(4H)-one]
IC50 [1]: > 1 µM
IC50 [2]: 0.1 to 1 µM
IC50 [3]: > 1 µM
IC50 [4]: 0.1 to 1 µM

Cc1nc(-n2nc(C3CCOCC3)[nH]c2=O)ccc1Oc1ccnc(-c2cnn(C)c2)c1 [Example 20, 1-(6-methyl-5-((2-(1-methyl-1H-pyrazol-4-yl)pyridin-4-yl)oxy)pyridin-2-yl)-3-(tetrahydro-2H-pyran-4-yl)-1H-1,2,4-triazol-5(4H)-one]
IC50 [1]: 0.1 to 1 µM
IC50 [2]: 0.1 to 1 µM
IC50 [3]: > 1 µM
IC50 [4]: 0.1 to 1 µM

Cc1nc(-n2nc(CC(C)C)[nH]c2=O)ccc1Oc1ccnc(-c2cnn(C)c2)c1 [Example 22, 3-isobutyl-1-(6-methyl-5-((2-(1-methyl-1H-pyrazol-4-yl)pyridin-4-yl)oxy)pyridin-2-yl)-1H-1,2,4-triazol-5(4H)-one]
IC50 [1]: 0.01 to 0.1 µM
IC50 [2]: ≤ 0.01 µM
IC50 [3]: > 1 µM
IC50 [4]: ≤ 0.01 µM

CCC(C)(C)c1nn(-c2ccc(Oc3ccnc(-c4cnn(C)c4)c3)c(C)n2)c(=O)[nH]1 [Example 25, 1-(6-methyl-5-((2-(1-methyl-1H-pyrazol-4-yl)pyridin-4-yl)oxy)pyridin-2-yl)-3-(tert-pentyl)-1H-1,2,4-triazol-5(4H)-one]
IC50 [1]: 0.01 to 0.1 µM
IC50 [2]: 0.01 to 0.1 µM
IC50 [3]: > 1 µM
IC50 [4]: 0.01 to 0.1 µM
